Assay results taken from PMC7044277 (Nature Communications, 2020).
“And” between values parts separate entries of the source, which are not always exact repeats. Equal entries are not always repeated.

How the values were obtained:
Assay type in all cases: cell-based
320 non-olfactory GPCRs [1] = biological target: T1, 320 non-olfactory GPCRs (Homo sapiens, UniProt Q969V1); details: receptor MCHR2R; replicate values, Fig_4g
T1 construct: expressed in transfected cells; host or cells: HTLA cells

320 non-olfactory GPCRs [2] = biological target: 320 non-olfactory GPCRs (Homo sapiens, UniProt Q96LA9); details: receptor MRGPRX4; replicate values, Fig_4g
320 non-olfactory GPCRs (Homo sapiens, UniProt Q96LA9), sequence (Q96LA9 whole entry): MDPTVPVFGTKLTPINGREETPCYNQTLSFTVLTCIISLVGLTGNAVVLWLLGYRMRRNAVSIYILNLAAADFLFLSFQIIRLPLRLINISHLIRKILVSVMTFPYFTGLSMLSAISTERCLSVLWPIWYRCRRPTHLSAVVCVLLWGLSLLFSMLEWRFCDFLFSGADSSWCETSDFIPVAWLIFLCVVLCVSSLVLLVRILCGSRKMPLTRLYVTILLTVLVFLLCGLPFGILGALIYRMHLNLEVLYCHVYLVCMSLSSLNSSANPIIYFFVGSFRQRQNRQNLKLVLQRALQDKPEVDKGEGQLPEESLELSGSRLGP

320 non-olfactory GPCRs [3] = biological target: 320 non-olfactory GPCRs (Homo sapiens, UniProt P41143); details: receptor OPRD1; replicate values, Fig_4g
320 non-olfactory GPCRs (Homo sapiens, UniProt P41143), sequence (P41143 whole entry): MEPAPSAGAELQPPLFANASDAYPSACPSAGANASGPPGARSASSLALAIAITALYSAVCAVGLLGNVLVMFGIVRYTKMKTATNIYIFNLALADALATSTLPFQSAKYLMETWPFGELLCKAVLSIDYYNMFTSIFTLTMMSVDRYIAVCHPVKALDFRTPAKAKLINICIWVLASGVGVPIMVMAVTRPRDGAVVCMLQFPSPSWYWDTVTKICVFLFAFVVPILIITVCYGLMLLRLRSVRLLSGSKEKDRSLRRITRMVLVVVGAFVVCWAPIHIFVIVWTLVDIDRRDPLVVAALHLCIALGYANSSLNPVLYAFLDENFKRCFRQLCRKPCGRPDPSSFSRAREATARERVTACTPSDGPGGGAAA

320 non-olfactory GPCRs [4] = biological target: T2, 320 non-olfactory GPCRs (Homo sapiens, UniProt P25929); details: receptor NPY1R; replicate values, Fig_4g
T2 construct: expressed in transfected cells; host or cells: HTLA cells
T2 sequence (P25929 whole entry): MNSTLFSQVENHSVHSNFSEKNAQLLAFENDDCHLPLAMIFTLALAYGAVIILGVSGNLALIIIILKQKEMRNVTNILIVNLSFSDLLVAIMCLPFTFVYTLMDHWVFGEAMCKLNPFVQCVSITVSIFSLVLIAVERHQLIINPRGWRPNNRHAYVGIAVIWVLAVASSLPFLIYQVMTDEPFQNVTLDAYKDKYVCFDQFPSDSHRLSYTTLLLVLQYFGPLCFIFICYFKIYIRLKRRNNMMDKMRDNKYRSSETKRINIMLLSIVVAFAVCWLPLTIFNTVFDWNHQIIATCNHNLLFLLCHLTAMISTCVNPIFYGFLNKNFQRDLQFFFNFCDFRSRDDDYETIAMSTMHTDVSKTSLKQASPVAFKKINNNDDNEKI
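Also: fold over basal response of each receptor without drug.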

T1 sequence (Q969V1 whole entry): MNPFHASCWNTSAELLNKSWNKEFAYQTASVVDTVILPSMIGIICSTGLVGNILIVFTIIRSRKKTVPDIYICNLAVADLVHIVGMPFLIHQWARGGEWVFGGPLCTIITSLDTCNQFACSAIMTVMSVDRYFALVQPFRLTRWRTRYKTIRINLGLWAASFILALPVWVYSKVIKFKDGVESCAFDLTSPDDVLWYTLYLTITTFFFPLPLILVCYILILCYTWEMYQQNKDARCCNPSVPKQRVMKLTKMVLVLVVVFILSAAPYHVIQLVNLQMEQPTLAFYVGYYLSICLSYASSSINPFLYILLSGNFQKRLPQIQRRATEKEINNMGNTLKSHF

CCOc1cccc2cc(C(C)NCC3(O)CCCCC3)oc12 (stereo not shown) [O4LE6]
GPCRome agonism screen response (320 non-olfactory GPCRs [1]): 1.156 and 0.4645 and 1.04 and 0.6466
GPCRome agonism screen response (320 non-olfactory GPCRs [2]): 0.3813 and 0.7022 and 0.804 and 1.112
GPCRome agonism screen response (320 non-olfactory GPCRs [3]): 1.015 and 0.7396 and 0.6746 and 0.921
GPCRome agonism screen response (320 non-olfactory GPCRs [4]): 0.9657 and 1.278 and 0.9923 and 0.817
